Active and inactive are the calls of the source. No cut-off for these calls is given here.
Legend:
Relaxin receptor 1 = molecular target: T1, Relaxin receptor 1 (Homo sapiens, UniProt Q9HBX9); assay: Agonist activity at RXFP1 receptor (unknown origin) expressed in HEK293 cells assessed as stimulation of cAMP production incubated for 30 mins by TR-FRET based HTRF assay; type: functional, cell-based
T1 sequence (Q9HBX9 whole entry): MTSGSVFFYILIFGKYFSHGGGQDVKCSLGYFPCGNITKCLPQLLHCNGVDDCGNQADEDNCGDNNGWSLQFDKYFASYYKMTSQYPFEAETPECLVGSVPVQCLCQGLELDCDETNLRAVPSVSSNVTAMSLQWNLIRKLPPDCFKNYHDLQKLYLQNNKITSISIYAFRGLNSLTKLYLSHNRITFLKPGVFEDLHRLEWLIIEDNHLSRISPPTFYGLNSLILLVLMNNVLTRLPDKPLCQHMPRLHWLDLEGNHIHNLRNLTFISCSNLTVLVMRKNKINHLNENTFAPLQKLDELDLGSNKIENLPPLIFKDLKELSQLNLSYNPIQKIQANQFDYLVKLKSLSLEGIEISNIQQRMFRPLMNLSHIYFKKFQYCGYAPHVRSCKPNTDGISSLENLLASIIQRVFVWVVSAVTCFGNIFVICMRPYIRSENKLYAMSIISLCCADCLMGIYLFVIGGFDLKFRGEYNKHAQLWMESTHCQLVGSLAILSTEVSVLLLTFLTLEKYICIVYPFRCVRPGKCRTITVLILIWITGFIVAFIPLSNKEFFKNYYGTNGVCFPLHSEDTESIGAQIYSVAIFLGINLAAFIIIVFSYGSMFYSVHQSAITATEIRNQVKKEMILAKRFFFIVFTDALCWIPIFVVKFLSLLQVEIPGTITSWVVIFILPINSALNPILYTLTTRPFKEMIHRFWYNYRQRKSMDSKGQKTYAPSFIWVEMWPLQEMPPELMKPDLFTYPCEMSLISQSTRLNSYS

[1] = molecular target: T2, Relaxin receptor 1 (Homo sapiens) (UniProt Q9HBX9); assay: Agonist activity at RXFP1 receptor (unknown origin) expressed in HEK293 cells assessed as stimulation of cAMP production incubated for 30 mins by TR-FRET based HTRF assay relative to forskolin; type: functional, cell-based
T2 sequence (whole entry): T1 sequence (Q9HBX9 whole entry)

SMILES: O=C(Nc1cccc(C(F)(F)F)c1)c1cccc(NC(=O)C2CCCCC2)c1
- AC50 (Relaxin receptor 1; hek293): Not Active
- %max [1]: inactive

SMILES: CCOc1ccccc1C(=O)Nc1ccccc1CNc1cccc(S(=O)(=O)C(F)(F)F)c1
- AC50 (Relaxin receptor 1; read-out: AC50): 2.65 µM
- %max [1]: 77%

SMILES: O=C(Cc1ccccc1)Nc1ccccc1C(=O)Nc1cccc(C(F)(F)F)c1
- AC50 (Relaxin receptor 1; read-out: AC50): 8.38 µM
- %max [1]: 86%

SMILES: COCCNc1ccccc1C(=O)Nc1cccc(C(F)(F)F)c1
- AC50 (Relaxin receptor 1; read-out: AC50): 59.3 µM
- %max [1]: 63%

SMILES: COc1ccc(C(=O)Nc2ccccc2C(=O)Nc2cccc(C(F)(F)F)c2)cc1
- AC50 (Relaxin receptor 1; read-out: AC50): 9.4 µM
- %max [1]: 71%

SMILES: O=C(Nc1cccc(C(F)(F)F)c1)c1ccccc1NC(=O)C1CCCCCC1
- AC50 (Relaxin receptor 1; read-out: AC50): 2.11 µM
- %max [1]: 75%

SMILES: CS(=O)(=O)c1cccc(C(=O)Nc2ccccc2C(=O)Nc2cccc(C(F)(F)F)c2)c1
- AC50 (Relaxin receptor 1; read-out: AC50): 9.4 µM
- %max [1]: 77%

SMILES: O=C(Nc1ccccc1C(=O)Nc1cccc(C(F)(F)F)c1)c1cccc(-c2ccccc2)c1
- AC50 (Relaxin receptor 1; read-out: AC50): 5.29 µM
- %max [1]: 89%

SMILES: O=C(Nc1cccc(C(F)(F)F)c1)c1ccccc1OCCN1CCOCC1
- AC50 (Relaxin receptor 1; hek293): Not Active
- %max [1]: inactive

SMILES: O=C(NCc1ccc(C(F)(F)F)cc1)c1ccccc1NC(=O)C1CCCCC1
- AC50 (Relaxin receptor 1; hek293): Not Active
- %max [1]: inactive

SMILES: O=C(Nc1ccccc1C(=O)Nc1cccc(C(F)(F)F)c1)c1ccc(Cl)cc1
- AC50 (Relaxin receptor 1; read-out: AC50): 2.65 µM
- %max [1]: 95%

SMILES: COc1ccc(NC(=O)c2ccccc2NC(=O)C2CCCCC2)cc1
- AC50 (Relaxin receptor 1; hek293): Not Active
- %max [1]: inactive

SMILES: O=C(Nc1cccc(C(F)(F)F)c1)c1ccccc1NC(=O)c1ccccc1Oc1ccccc1
- AC50 (Relaxin receptor 1; read-out: AC50): 0.747 µM
- %max [1]: 97%

SMILES: O=C(Nc1ccccc1C(=O)Nc1cccc(C(F)(F)F)c1)c1ccccc1Cl
- AC50 (Relaxin receptor 1; read-out: AC50): 3.74 µM
- %max [1]: 92%

SMILES: C#Cc1cccc(NC(=O)c2ccccc2NC(=O)C2CCCCC2)c1
- AC50 (Relaxin receptor 1; read-out: AC50): 6.66 µM
- %max [1]: 85%

SMILES: COc1ccccc1Nc1ccccc1C(=O)Nc1cccc(C(F)(F)F)c1
- AC50 (Relaxin receptor 1; read-out: AC50): 4.71 µM
- %max [1]: 77%

SMILES: O=C(Nc1ccccc1C(=O)Nc1cccc(C(F)(F)F)c1)c1cccc(Br)c1
- AC50 (Relaxin receptor 1; read-out: AC50): 1.67 µM
- %max [1]: 97%

SMILES: CCOc1ccccc1C(=O)Nc1ccccc1C(=O)Nc1ccncc1
- AC50 (Relaxin receptor 1; read-out: AC50): 74.7 µM
- %max [1]: 64%

SMILES: O=C(Nc1ccccc1C(=O)Nc1cccc(C(F)(F)F)c1)c1ccccc1
- AC50 (Relaxin receptor 1; read-out: AC50): 1.32 µM
- %max [1]: 64%

SMILES: O=C(Nc1ccccc1C(=O)Nc1cccc(C(F)(F)F)c1)c1ccc(Br)cc1
- AC50 (Relaxin receptor 1; read-out: AC50): 4.2 µM
- %max [1]: 93%

SMILES: CS(=O)(=O)c1cccc(NC(=O)c2ccccc2NC(=O)C2CCCCC2)c1
- AC50 (Relaxin receptor 1; read-out: AC50): 118 µM
- %max [1]: 34%

SMILES: O=C(Nc1ccccc1)c1ccccc1NC(=O)C1CCCCC1
- AC50 (Relaxin receptor 1; read-out: AC50): 94 µM
- %max [1]: 57%

SMILES: COc1ccccc1C(=O)N(C)c1ccccc1C(=O)N(C)c1cccc(C(F)(F)F)c1
- AC50 (Relaxin receptor 1; hek293): Not Active
- %max [1]: inactive

SMILES: CN(C)CCCOc1ccccc1C(=O)Nc1cccc(C(F)(F)F)c1
- AC50 (Relaxin receptor 1; hek293): Not Active
- %max [1]: inactive

SMILES: COc1ccccc1C(=O)Nc1ccc(C(=O)Nc2cccc(C(F)(F)F)c2)cc1
- AC50 (Relaxin receptor 1; hek293): Not Active
- %max [1]: inactive

SMILES: O=C(Nc1ccccc1C(=O)Nc1cccc(S(=O)(=O)C(F)(F)F)c1)c1ccccc1I
- AC50 (Relaxin receptor 1; read-out: AC50): 4.2 µM
- %max [1]: 85%

SMILES: O=C(Nc1cccc(C(F)(F)F)c1)c1ccccc1NC(=O)c1ccccc1OC(F)(F)F
- AC50 (Relaxin receptor 1; read-out: AC50): 1.18 µM
- %max [1]: 96%

SMILES: O=C(NCc1ccco1)c1ccccc1NC(=O)C1CCCCC1
- AC50 (Relaxin receptor 1; hek293): Not Active
- %max [1]: inactive

SMILES: COCCOc1ccccc1C(=O)Nc1cccc(C(F)(F)F)c1
- AC50 (Relaxin receptor 1; hek293): Not Active
- %max [1]: inactive

SMILES: O=C(Nc1cccc(C(F)(F)F)c1)c1ccccc1NC(=O)C1CCCC1
- AC50 (Relaxin receptor 1; read-out: AC50): 2.36 µM
- %max [1]: 88%

SMILES: CC(C)(C)c1ccc(NC(=O)c2ccccc2NC(=O)C2CCCCC2)cc1
- AC50 (Relaxin receptor 1; hek293): Not Active
- %max [1]: inactive

SMILES: COc1ccccc1C(=O)Nc1ccccc1C(=O)Nc1cccc(N2CCCCC2)c1
- AC50 (Relaxin receptor 1; read-out: AC50): 5.29 µM
- %max [1]: 77%

SMILES: O=C(Nc1ccccc1C(=O)Nc1cccc(C(F)(F)F)c1)c1cccc(Cl)c1
- AC50 (Relaxin receptor 1; read-out: AC50): 1.88 µM
- %max [1]: 96%

SMILES: O=C(Nc1cccc(I)c1)c1ccccc1NC(=O)C1CCCCC1
- AC50 (Relaxin receptor 1; read-out: AC50): 2.97 µM
- %max [1]: 84%

SMILES: CC(C)(C)OC(=O)Nc1ccccc1C(=O)Nc1cccc(C(F)(F)F)c1
- AC50 (Relaxin receptor 1; read-out: AC50): 5.29 µM
- %max [1]: 79%

SMILES: CC(=O)c1ccc(C(=O)Nc2ccccc2C(=O)Nc2cccc(C(F)(F)F)c2)cc1
- AC50 (Relaxin receptor 1; read-out: AC50): 5.93 µM
- %max [1]: 71%

SMILES: CN(C)CCOc1ccccc1C(=O)Nc1cccc(C(F)(F)F)c1
- AC50 (Relaxin receptor 1; hek293): Not Active
- %max [1]: inactive

SMILES: O=C(Nc1ccccc1C(=O)Nc1cccc(C(F)(F)F)c1)c1ccc(C(F)(F)F)cc1
- AC50 (Relaxin receptor 1; read-out: AC50): 5.93 µM
- %max [1]: 93%

SMILES: O=C(Nc1cccc(C(F)(F)F)c1)c1ccccc1NCC1CCCCC1
- AC50 (Relaxin receptor 1; read-out: AC50): 5.93 µM
- %max [1]: 77%

SMILES: CCOc1ccccc1C(=O)Nc1ccccc1C(=O)Nc1cccc(C(=N)N)c1
- AC50 (Relaxin receptor 1; hek293): Not Active
- %max [1]: inactive

SMILES: O=C(Nc1cccc(C(F)(F)F)c1)c1ccccc1OCCN1CCCCC1
- AC50 (Relaxin receptor 1; hek293): Not Active
- %max [1]: inactive

SMILES: O=C(Nc1cccc([N+](=O)[O-])c1)c1ccccc1NC(=O)C1CCCCC1
- AC50 (Relaxin receptor 1; read-out: AC50): 5.93 µM
- %max [1]: 93%

SMILES: O=C(Nc1ccc([N+](=O)[O-])cc1)c1ccccc1NC(=O)C1CCCCC1
- AC50 (Relaxin receptor 1; read-out: AC50): 74.7 µM
- %max [1]: 56%

SMILES: O=C(Nc1cccc(C(F)(F)F)c1)c1ccccc1NC(=O)C12CC3CC(CC(C3)C1)C2
- AC50 (Relaxin receptor 1; read-out: AC50): 4.71 µM
- %max [1]: 87%

SMILES: O=C(Nc1ccccc1C(=O)Nc1cccc(C(F)(F)F)c1)c1ccc([N+](=O)[O-])cc1
- AC50 (Relaxin receptor 1; read-out: AC50): 1.49 µM
- %max [1]: 96%

SMILES: Cc1ccccc1C(=O)Nc1ccccc1C(=O)Nc1cccc(C(F)(F)F)c1
- AC50 (Relaxin receptor 1; read-out: AC50): 4.2 µM
- %max [1]: 90%

SMILES: CC(C)(C)c1cccc(NC(=O)c2ccccc2NC(=O)C2CCCCC2)c1
- AC50 (Relaxin receptor 1; read-out: AC50): 2.65 µM
- %max [1]: 70%

SMILES: O=C(Nc1cccc(C(F)(F)F)c1)c1ccccc1-c1ccccc1
- AC50 (Relaxin receptor 1; hek293): Not Active
- %max [1]: inactive

SMILES: O=C(Nc1ccccc1C(=O)Nc1cccc(C(F)(F)F)c1)c1ccco1
- AC50 (Relaxin receptor 1; read-out: AC50): 2.36 µM
- %max [1]: 81%

SMILES: C/C=C/c1cccc(NC(=O)c2ccccc2NC(=O)c2ccccc2OCC)c1
- AC50 (Relaxin receptor 1; read-out: AC50): 2.11 µM
- %max [1]: 84%

SMILES: O=C(Nc1cccc(S(=O)(=O)C(F)(F)F)c1)c1ccccc1NC(=O)C1CCCCC1
- AC50 (Relaxin receptor 1; read-out: AC50): 1.06 µM
- %max [1]: 87%

SMILES: CC(C)(C)OC(=O)N1CCN(CCOc2ccccc2C(=O)Nc2ccccc2C(=O)Nc2cccc(C(F)(F)F)c2)CC1
- AC50 (Relaxin receptor 1; read-out: AC50): 1.33 µM
- %max [1]: 94%

SMILES: O=C(Nc1cccc(Cl)c1)c1ccccc1NC(=O)C1CCCCC1
- AC50 (Relaxin receptor 1; read-out: AC50): 3.34 µM
- %max [1]: 89%

SMILES: COc1ccccc1C(=O)Nc1ccccc1C(=O)Nc1cccc(S(C)(=O)=O)c1
- AC50 (Relaxin receptor 1; read-out: AC50): 6.66 µM
- %max [1]: 95%

SMILES: CC(C)Oc1ccccc1C(=O)Nc1ccccc1C(=O)Nc1cccc(C(F)(F)F)c1
- AC50 (Relaxin receptor 1; read-out: AC50): 0.471 µM
- %max [1]: 99%

SMILES: O=C(Nc1cccc(-c2ccc(C(F)(F)F)cc2)c1)c1ccccc1NC(=O)C1CCCCC1
- AC50 (Relaxin receptor 1; hek293): Not Active
- %max [1]: inactive

SMILES: N#Cc1cccc(C(=O)Nc2ccccc2C(=O)Nc2cccc(C(F)(F)F)c2)c1
- AC50 (Relaxin receptor 1; read-out: AC50): 2.1 µM
- %max [1]: 96%

SMILES: O=C(Nc1cccc(C(F)(F)F)c1)c1ccccc1NC(=O)c1ccccc1OCCN1CCCCC1
- AC50 (Relaxin receptor 1; read-out: AC50): 2.65 µM
- %max [1]: 99%

Source: ChEMBL document CHEMBL3714716, “Modulators of the relaxin receptor 1” (2015)
